Experimental data: publication PMC13195669, “GPR3 Ligands Discovered through Combined Virtual and Conformational Biosensor-Based Screening” (Journal of the American Chemical Society, 2026)

Tests used:
Format in all cases: cell-based
[1] = molecular target: T1, adenosine A2B receptor (A2BR) (Homo sapiens, UniProt P29275); assay: cAMP GloSensor 22F, agonist-stimulated A2BR; conditions: preincubation with 100 μM or 10 μM
T1 construct: expressed in transfected cells; host or cells: HEK293A, transient
T1 sequence (P29275 1-332): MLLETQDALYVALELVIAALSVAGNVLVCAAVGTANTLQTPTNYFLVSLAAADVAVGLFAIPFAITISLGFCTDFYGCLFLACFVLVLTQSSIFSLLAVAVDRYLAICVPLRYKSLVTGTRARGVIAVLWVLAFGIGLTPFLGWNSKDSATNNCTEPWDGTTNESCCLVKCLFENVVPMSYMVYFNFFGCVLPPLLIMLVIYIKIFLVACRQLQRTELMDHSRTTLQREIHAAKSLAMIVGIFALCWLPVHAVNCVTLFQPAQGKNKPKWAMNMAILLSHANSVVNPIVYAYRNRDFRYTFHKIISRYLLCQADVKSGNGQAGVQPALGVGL
Experimental: (§1) Next, we used the classical cAMP GloSensor technology to assess the target selectivity profile of 33. […] In addition, we tested the effects of 33 on cAMP changes mediated by agonist-stimulated GPCRs phylogenetically close to GPR3 and coupling to Gs or Gi/o proteins.
(§2) BRET-based GPCR conformational sensor experiments
(§3) Cells expressing the conformational GPCR biosensors were grown for 24 h (stable cells) or 48 h (transiently transfected cells) in white 96-well plates and washed with 100 µl of HBSS. After washing, cells were incubated for 2 minutes with a 1/1000 solution of the furimazine stock solution (Promega; cat. no. N1662). Three baseline BRET reads were recorded and averaged prior to the addition of serial dilutions of ligands or veh icle control and subsequent BRET reads. […] BRE T donor emission was quantified with a 470/80 nm monochromator. […] Experiments were carried out using a CLARIOstar plate reader.
(§4) FRET- and BRET-based measurements of cAMP levels and Gs dissociation/reassociation Transfected cells grown in black 96-well plates were washed twice with 100 µl of HBSS 48 h after transfection and incubated with HBSS. […] Three baseline FRET/BRET reads were recorded and averaged prior to the addition of serial dilutions of ligands or vehicle control and sub-sequent FRET/BRET reads. […] FRET donor emission was quantified with a 480/10 nm filter. […]
(§5) Luminescence measurement using the cAMP GloSensor™ 22F […]

[2] = molecular target: T2, cannabinoid receptor 1 (CB1R) (Homo sapiens, UniProt P21554); assay: cAMP GloSensor 22F, agonist-stimulated CB1R; conditions: preincubation with 100 μM or 10 μM; 10 µM forskolin
T2 construct: expressed in transfected cells; host or cells: HEK293A, transient
T2 sequence (P21554 whole entry, species assumed): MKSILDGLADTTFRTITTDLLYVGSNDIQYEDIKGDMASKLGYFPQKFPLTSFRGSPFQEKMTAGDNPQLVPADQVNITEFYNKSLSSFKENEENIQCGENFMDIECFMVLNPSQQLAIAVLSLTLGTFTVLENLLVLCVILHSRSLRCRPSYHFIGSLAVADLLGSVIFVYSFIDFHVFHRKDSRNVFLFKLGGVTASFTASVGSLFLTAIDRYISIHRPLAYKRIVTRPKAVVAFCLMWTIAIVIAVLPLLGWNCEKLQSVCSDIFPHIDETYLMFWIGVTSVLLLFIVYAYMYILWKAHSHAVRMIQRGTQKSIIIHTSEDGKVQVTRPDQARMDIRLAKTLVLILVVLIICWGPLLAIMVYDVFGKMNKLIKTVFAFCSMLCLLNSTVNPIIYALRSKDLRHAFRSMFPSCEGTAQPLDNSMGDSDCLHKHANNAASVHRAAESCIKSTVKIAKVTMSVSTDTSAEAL
Experimental: as §1, §2, §3, §4, §5

[3] = molecular target: T3, LPA receptor 1 (LPAR1) (Homo sapiens, UniProt Q92633); assay: cAMP GloSensor 22F, agonist-stimulated LPAR1; conditions: preincubation with 100 μM or 10 μM; 10 µM forskolin
T3 construct: expressed in transfected cells; host or cells: HEK293A, transient
T3 sequence (Q92633 whole entry, species assumed): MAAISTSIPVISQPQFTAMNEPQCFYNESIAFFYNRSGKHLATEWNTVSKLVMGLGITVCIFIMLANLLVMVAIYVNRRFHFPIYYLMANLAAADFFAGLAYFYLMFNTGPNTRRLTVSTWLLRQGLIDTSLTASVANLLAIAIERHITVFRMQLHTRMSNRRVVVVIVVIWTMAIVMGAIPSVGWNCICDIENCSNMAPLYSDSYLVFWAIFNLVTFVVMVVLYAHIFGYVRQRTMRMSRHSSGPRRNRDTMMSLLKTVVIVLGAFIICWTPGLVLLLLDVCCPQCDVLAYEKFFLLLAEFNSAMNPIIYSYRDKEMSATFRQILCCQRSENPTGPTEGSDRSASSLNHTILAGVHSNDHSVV
Experimental: as §1, §2, §3, §4, §5

## N=c1n(Cc2ccccc2)c2ccccc2n1CC1CC1 [compound 33]
[1]
  effect on agonist-induced cAMP change mediated by A2BR: neither 100 μM nor 10 μM 33 significantly altered
[2]
  effect on agonist-induced cAMP change mediated by CB1R: neither 100 μM nor 10 μM 33 significantly altered
[3]
  effect on agonist-induced cAMP change mediated by LPAR1: neither 100 μM nor 10 μM 33 significantly altered
